Source: publication PMC6211316, “Synthesis and biological evaluation of 3-arylcoumarin derivatives as potential anti-diabetic agents” (Journal of Enzyme Inhibition and Medicinal Chemistry, 2018)

Test system: STZ-induced diabetic mice
Experiment: Oral glucose tolerance test in STZ-induced diabetic mice
Format: in vivo
Settings: 30 mg/kg of bw, glucose 2 g/kg of bw, vs vehicle-treated group (p < 0.05)
Procedure: The target compounds 11, 17, and 35 (30 mg/kg of bw) and control drugs (glibenclamide 10 mg/kg of bw) were dissolved in the vehicle (Tween-80, NaCl 0.9%). Glucose (2 g/kg of bw) was used for the glucose tolerance tests. The control mice group received only the vehicle. All cases were treated orally. Blood samples were collected from caudal vein by means of a small incision in the end of the tail. Blood glucose levels were estimated by a commercial glucometer (Bayer Contour TS). For the anti-hyperglycemic tests, blood samples were obtained 0.5, 1, 1.5, 2, and 3 h after the glucose load. Percentage variation of glycemia for each group was calculated with respect to initial (0 h) level according to: % Variation of glycemia=[(Gi−Gt)/Gi]×100% where Gi is initial glycemia values and Gt is the glycemia value after samples administration. For the anti-hyperglycemic tests, data were represented as % variation of glycemia versus time. Studies were performed in normoglycemic and STZ-induced diabetic mice.

SMILES	postprandial glycemia peak in oral glucose tolerance test
O=c1oc2ccc(O)cc2cc1-c1ccc(O)cc1 [Compound 17, 6-Hydroxy-3-(4-hydroxyphenyl)-coumarin]	caused significant decrease in the postprandial glycemia peak
COc1ccc(-c2cc3c(O)cc(O)cc3oc2=O)cc1 [Compound 35, 5,7-Dihydroxy-3-(4-methoxyphenyl)-coumarin]	caused significant decrease in the postprandial glycemia peak
